Source: publication PMC5813016 (Nature Communications, 2018)

Columns and labels:
[1] = tested on: cynomolgus monkeys; test: Monkey spontaneous eye blink rate (EBR); assay type: in vivo, Macaca fasicularis; conditions: cynomolgus monkey; for EBR response on repeated daily dosing (3 days): n = 3, A-77636 s.c., PF-2334 oral 0.6 + 0.3 mg/kg
Experimental: Increase in spontaneous EBR has been previously shown with D1 agonists and partial agonists. To confirm the specificity of the response in our particular assay set up for D1 activation, we verified that the D1 receptor antagonist SCH-39166 fully blocks the increased eye blink response of non-catechol full D1 agonist that is a close structural analog of the compounds in this paper (data not shown). All procedures involving animals were conducted with approval of the Pfizer Institutional Animal Care and Use Committee (Groton, CT) and compliant with the regulations and standards of the Animal Welfare Act (9CFR2, 9CFR3). Three male Cynomolgus macaques (Macaca fasicularis) of Mauritian origin, 7–10 years old, SPF for CHV-1, SIV, STLV1 and SRV 1, 2, 5 were used. Animals were exposed to 12 h light/dark cycle (lights on 6:00 AM – 6:00 PM). […] EBRS were recorded from chaired animals for 2 min at 10 min intervals by a trained observer through direct visual observation who was blinded to experimental conditions. Animals were chaired at approximately 7:30 AM. After vehicle or compound administration, eye blinks were recorded during the following intervals: from 10 to 50 min (0–1 h), 130 to 170 min (2–3 h), 310 to 350 min (5–6 h). Animals were returned to their home cages between two consecutive sessions and after the final recording of the day. Blood samples (1 ml) were collected from the femoral vein at 1 and 5 h after the first dose to quantitate plasma compound levels. […] A77636 was dissolved in 0.9% sterile saline, formulated fresh prior to administration, and given once per day for 3 days. […] Vehicle control was administered on day 0.
EBR data were first converted to blinks per minute. EBR were averaged by binning into 3 periods: Period 1 (0–1 h after the first dose) EBR = mean of 10, 20, 30, 40, and 50 min recordings; Period 2 (2–3 h after the first dose) EBR = mean of 130, 140, 150, 160, and 170 min recordings; Period 3 (5–6 h after the first dose) EBR = mean of 310, 320, 330, 340, and 350 min recordings. For Fig. 5c EBR data were averaged by binning data from periods 1 through 3 as daily EBR. Data from each animal was then normalized to their respective Day 1 EBR and expressed as percent of Day 1 EBR for each drug. EBR data were analyzed with SAS® 9.4 (SAS Institute Inc. Cary, NC) using a mixed linear model (Mixed Procedure) for repeated measures. The model included treatment, day, time period, and their interactions as fixed effects, and animal and animal-by-day interaction as random effects. A first order autoregressive model was used for longitudinal covariance structure. Differences between least squares means across days, overall and for each time period, were tested and adjusted for multiple comparisons via Tukey method. […]

[2] = tested on: human D1R T59A mutant; test: cAMP assay, D1R mutant T59A; conditions: relative to wild-type D1R; each table line is one experiment (Experiment # 1-6)
[3] = tested on: human D1R T273A mutant; test: cAMP assay, D1R mutant T273A; conditions: relative to wild-type D1R; each table line is one experiment (Experiment # 1-6)
[4] = Rat pharmacokinetic studies; assay type: in vivo, Wistar Hannover rat; conditions: for plasma concentration profile after oral administration: compared with SKF-38393; for clearance / Vd / bioavailability / half-life: male, Wistar Hannover, plasma; for clearance / Vd: iv; for Vd: read-out: Vdss; for bioavailability: oral bioavailability; for half-life: read-out: t½ (converted)
Experimental: Rat pharmacokinetic studies were conducted at BioDuro, Pharmaceutical Product Development, Inc. (Shanghai, China). Wistar Hannover rats (227–293 gram weight) were obtained from Vital River Laboratories (China). All animal studies were conducted in accordance with the Pfizer Institutional Animal Care and Use Committee (Groton, CT), using protocols approved by Pfizer PDM′s Global BA Committee (2009). Jugular vein-cannulated male Wistar Hanover rats were maintained on a 12 h light/dark cycle for a minimum of three days in a temperature-controlled and humidity-controlled environment with free access to food and water. Individual animals (n = 2 or 3 per dose/route) were administered a single dose of compound by either intravenous injection via tail vein or oral gavage based on body weight. […] The PF-6142 intravenous dose (1 mg/kg) was formulated in saline acidified with three molar equivalents of 1 N hydrochloric acid and the PF-6142 oral dose (5 mg/kg) was formulated in 0.5% methylcellulose. […] Formulations were agitated until all of the test article was dissolved. […] From each rat, serial blood samples were collected via jugular vein cannula prior to dose administration and at the following time points post-dose: 0.033 (i.v. only), 0.083, 0.25, 0.5, 1, 2, 4, 7, and 24 h. […] All blood samples were placed on wet ice until centrifugation. Following centrifugation, the plasma was transferred to polypropylene tubes and stored frozen at either −20 °C to −80 °C until analysis. Urine was collected from all intravenous-dosed rats into collection tubes from the collection intervals of 0–7 h and 7–24 h post-dose. […] All urine samples were stored at −80 °C until analysis. All samples were processed for quantitation of compound concentrations using protein precipitation methodology followed by analysis using liquid chromatography-tandem mass spectrometry (LC-MS/MS). […] The pharmacokinetic parameters (including those in Supplementary Table 3) were computed by non-compartmental analysis[61] using Watson Bioanalytical LIMS version 7.4 (Thermo Fischer Scientific, CA).

| Structure (SMILES) | EBR response on repeated daily dosing (3 days) [1] | increase of spontaneous EBR over baseline after single dose ([1]; A-77636 s.c. (0.1 mg/kg as printed elsewhere in the source), PF-2334 oral 0.6 mg/kg + 0.3 mg/kg 8 h later) | fold shift of cAMP functional potency, T59A (EC50 mutant/ EC50 WT) [2] | fold shift of cAMP functional potency, T273A (EC50 mutant/ EC50 WT) [3] | plasma concentration profile after oral administration [4] | clearance [4] [mL/min/kg] | Vd [4] [L/kg] | bioavailability [4] [%] | half-life [4] [min] |
| --- | --- | --- | --- | --- | --- | --- | --- | --- | --- |
| NC[C@@H]1O[C@H](C23CC4CC(CC(C4)C2)C3)Cc2c1ccc(O)c2O [A-77636, reference compound] | progressively and significantly attenuated with each dosing day | 2–3 fold |  |  |  |  |  |  |  |
| Cc1cc(Oc2cccc(O)c2O)ccc1-c1c(C)ncnc1C [PF-1437] |  |  | 0.2 | 0.1 |  |  |  |  |  |
| Cc1n[nH]c(=O)c(C)c1-c1ccc(Oc2nccc3occc23)cc1F [PF-2334] | sustained after multiple days of dosing |  |  |  | more sustained plasma concentration profiles | 20.8 | 1.2 | 57.2 | 48 |
| Cc1cc(Oc2nccc3occc23)ccc1-c1c(C)ncc2nccn12 [PF-6142] |  |  | 1.0 | 0.2 | more sustained plasma concentration profiles | 42.5 | 2.4 | 85.4 | 66 |
